Here are results for 2 compounds from US5726012A, “Rapid, high capacity nucleic acid based assay” (E. I. du Pont de Nemours and Company, priority 1994, dated 1998).

Test [1] concerns HIV RF (infectious virus) in MT-2 cells. The test can be described thus: Yield of infectious virus by plaque assay (yield reduction assay) in MT-2 cells. It is filed as cell-based, HIV-1 (strain RF). The following applies: for yield of infectious virus: 72 hours, MT-2 cells, HIV RF; for IC90: Human immunodeficiency virus 1, MT2, 72 h. As for the experimental part: Test compounds were dissolved in dimethylsulfoxide to 5 mg/ml and serially diluted into RPMI 1640 medium to 10 times the desired final concentration. MT-2 cells (5×10^5 /ml) in 2.3 ml were mixed with 0.3 ml of the appropriate test compound solution and allowed to sit for 30 minutes at room temperature. HIV-1 IIIB or HIV-1 RF virus (~5×10^5 plaque forming units/ml) in 0.375 ml was added to the cell and compound mixtures and incubated for one hour at 36° C. The mixtures were centrifuged at 1000 rpm for 10 minutes and the supernatants containing unattached virus were discarded. The cell pellets were suspended in fresh RPMI 1640 containing the appropriate concentrations of test compound and placed in a 36° C., 4% CO2 incubator. Virus was allowed to replicate for three days. Cultures were centrifuged for 10 minutes at 1000 rpm and the supernatants containing cell free progeny virus removed for plaque assay. Virus suspensions were serially diluted in RPMI 1640 and 1.0 ml of each dilution added to 9 ml of MT-2 cells in RPMI 1640. Cells and virus were incubated for three hours at 36° C. to allow for efficient attachment of the virus to cells. Each virus and cell mixture was aliquoted equally to two wells of a six well poly-L-lysine coated culture plate and incubated overnight at 36° C., 4% CO2. Liquid and unattached cells were removed prior to the addition of 1.5 ml of RPMI 1640 with 0.75% (w/v) Seaplaque agarose (FMC Corp) and 5% FCS. Plates were incubated for three days and a second RPMI 1640/agarose overlay added. After an additional three days at 36° C., 4% CO2, a final overlay of PBS with 0.75% Seaplaque agarose and 1 mg/ml MTT was added. The plates were incubated overnight at 36° C. Clear plaques on a purple background were counted and the number of plaque forming units of virus calculated for each sample. The virus titers of the progeny virus produced in the presence or absence of test compounds was determined by plaque assay as described above. The antiviral activity of test compounds was determined by the percent reduction in the virus titer with respect to virus grown in the absence of any inhibitors.
(§1) MT-2 cells were infected by resuspension in medium (Dulbecco's Modified Eagles, 5% Fetal calf serum, 50 ug/ml glutamine, 50 ug/ml gentamycin) containing either 1 ×10^6 TCID 50/ ml (FIGS. 7 and 9) or 2.5×10^5 TCID 50/ml of HIV RF virus (FIGS. 8 and 9) to a final concentration of 5×10^5 cells/ml, with or without various concentrations of AZT or P9941 which is (2S,3R,4R, 5S)-N,N'-[(2-pyridylacetyl)-L-isoleucyl]-2,5-diamino-1,6-diphenyl-hexane-3,4-diol as described in WO91/18866, the disclosure of which is incorporated by reference. After incubation for four hours at 37° C., the cells were pelleted, the supernatant medium removed, and cells resuspended in an equal volume of medium ± compound without added virus. Culture was continued for a total of 72 hours at 37° C. after which time cells were pelleted, lysed by addition of 5M GED, and stored frozen at -70° C. until quantitation of HIV-1 RNA by the method described in Example 8 except that the `gag` capture/reporter probe set as described in Example 2 was employed. Supernatant medium from each sample was frozen at -120° C. until determination of yield of infectious virus by plaque assay as described in Example 11. […] Both cell associated RNA and yield of infectious virus were reduced by treatment with either AZT, a reverse transcriptase inhibitor, or P9941, an inhibitor of the HIV encoded protease. The concentration of AZT or P9941 required to inhibit HIV-1 RNA by 90% (IC90) was equivalent to the concentration of AZT or P9941 required to inhibit the yield of infectious virus by 90% (IC90). The concentrations of antiviral compound required to inhibit either HIV-1 RNA or yield of infectious virus by 90% (IC90) were very similar. For both HIV RNA and yield of infectious virus, this IC90 value was affected by the initial MOI (Table 1).

In test [2] the test system is HIV RF (HIV-1 RNA) in MT-2 cells. As to the kind of experiment: Quantitation of cell associated HIV-1 RNA in infected MT-2 cells (correlation study). It is filed as cell-based, HIV-1 (strain RF). As to conditions: for IC90 for HIV-1 RNA compared with IC90 for yield of infectious virus / cell associated RNA: 72 hours, MT-2 cells, HIV RF; for IC90: Human immunodeficiency virus 1, MT2, 72 h, 72 hrs after infection. Here is the method:
HIV-1 infected cell lysates from MT-2 cells grown for 24, 48 and 72 hours after infection with different initial multiplicities of infection (MOI, e.g., TCID 50 per cell) of HIV-1RF were prepared by the cell pelleting method as described in Example 5. The tissue culture infectious dose (TCID 50) for HIV-1 RF stocks were determined in MT-2 cells by a modification of the method of Johnson et al., "Infectivity Assay", Techniques in HIV Research, Aldovina et al. (1990) wherein the tissue culture medium was not changed after four days. 40 μl of the lysate and 5 μl of 1 μM biotinylated `pol` oligo were combined with GED to a final volume of 100 μl and a GED concentration of 3M and a final biotinylated `pol` oligo concentration of 50 nM. Hybridization was carried out overnight at 37° C. in sealed polypropylene tubes. Each sample was diluted three-fold with deionized water to a final GED concentration of 1M and aliquots (120 μl) transferred to streptavidin coated microtiter plate wells. The biotin oligo-RNA complex solution was incubated with the immobilized streptavidin for two hours at room temperature, after which the plates were washed six times with DuPont ELISA plate wash buffer (phosphate buffered saline (PBS)/0.05% Tween 20) with a Denley plate washer. A second hybridization was carried out by adding 120 μl of hybridization cocktail containing 4× standard saline citrate (0.15M NaCl, 0.015 sodium citrate) (SSC), 0.66% Triton X-100 and 6.66% deionized formamide, 1 mg/ml bovine serum albumin (BSA) and 5 nM `pol` AP reporter oligo to each well. After hybridization for one hour at 37° C., the plate was again washed six times in PBS/0.05% Tween 20. Alkaline phosphatase activity was detected by addition of 100 μl of substrate detection buffer, consisting of: 0.2 mM 4-methylumbelliferyl phosphate (MUBP, JBL Scientific) in 2.5M diethanolamine pH 8.9 (JBL), 10 mM MgCl2, 5 mM Zinc acetate dihydrate, and 5 mM n-hydroxyethyl-ethylene-diamine-triacetic acid. The plates were incubated at 37° C. Fluorescence was measured using a microplate fluorometer (Dynateck) exciting at 365 nm and emitting at 450 nm. […] At MOI's greater than 1 for cells cultured 72 hours after infection the level of HIV-1RNA was diminished by cell death that occurs as a result of extensive virus replication.
as §1, with “For both HIV RNA and yield of infectious virus, this IC90 value was affected by the initial MOI (Table 1).” left out

Structures are written as SMILES. Values after ≈ are worked out from the molar mass of the structure shown. Like-named read-outs stand apart in the source and are kept apart here.

In the case of `Cc1cn([C@H]2C[C@H](N=[N+]=[N-])[C@@H](CO)O2)c(=O)[nH]c1=O` [AZT], in test [1], the “yield of infectious virus” value was “reduced”. Moreover, the IC90 in test [1] (read-out: IC90, PFU, 72 hrs after infection, MOI = 0.5) came to 0.09 µg/mL (≈ 0.337 µM); in test [1] (read-out: IC90, PFU, 72 hrs after infection, MOI = 2.0) it was 0.28 µg/mL (≈ 1.05 µM); in test [2] (MOI = 0.5), 0.12 µg/mL (≈ 0.449 µM); in test [2] (MOI = 2.0), 0.2 µg/mL (≈ 0.748 µM). Moreover, the “IC90 for HIV-1 RNA compared with IC90 for yield of infectious virus” value in test [2] was “equivalent”. For the same compound, the “cell associated RNA” value in test [2] is recorded as “reduced”.

For the compound `CC[C@H](C)[C@H](NC(=O)Cc1ccccn1)C(=O)N[C@@H](Cc1ccccc1)[C@@H](O)[C@H](O)[C@H](Cc1ccccc1)NC(=O)[C@@H](NC(=O)Cc1ccccn1)[C@@H](C)CC` [P9941, (2S,3R,4R, 5S)-N,N'-[(2-pyridylacetyl)-L-isoleucyl]-2,5-diamino-1,6-diphenyl-hexane-3,4-diol], the “yield of infectious virus” value in test [1] is “reduced”. Besides, the IC90 in test [1] (72 hrs after infection, MOI = 0.5, read-out: IC90, PFU) worked out at 0.38 µg/mL (≈ 0.497 µM); in test [1] (72 hrs after infection, MOI = 2.0, read-out: IC90, PFU) it was 1 µg/mL (≈ 1.31 µM); in test [2] (MOI = 0.5), 0.55 µg/mL (≈ 0.719 µM); in test [2] (MOI = 2.0), 1.5 µg/mL (≈ 1.96 µM). Further, the “IC90 for HIV-1 RNA compared with IC90 for yield of infectious virus” value in test [2] is “equivalent”. The “cell associated RNA” value in test [2] was “reduced”.

The term IC90 denotes the concentration at which the effect reaches the 90% level.
